Experimental data from publication PMC11123956, “Nobiletin Stimulates Adrenal Hormones and Modulates the Circadian Clock in Mice” (Nutrients, 2024).
Read-outs that look alike come from different tables or passages of the source.

Legend:
Bmal1 mRNA = experiment: Real-time RT-PCR of Bmal1 mRNA in peripheral tissues; assay type: in vivo, mice; conditions: after a single treatment
Protocol: (§1) Male C57BL/6J mice (7 weeks old) were purchased from Charles River Japan (Kanagawa, Japan) and used for the serum hormone assay and RT-PCR. Male ICR mice were purchased from Tokyo Laboratory Animals Science Co., Ltd. (Tokyo, Japan), and female PERIOD2::LUCIFERASE (PER2::LUC) knock-in mice (ICR background) bred at Waseda University were used for blood glucose measurements and in vivo imaging assays, respectively. The mice were all housed under conditions of controlled temperature (23 °C ± 3 °C), humidity (50% ± 20%), and lighting (lights on from 07:00 to 19:00 at Taisho Pharmaceutical Co., Ltd. or from 08:00 to 20:00 at Waseda University). In the 24 h cycle, Zeitgeber time 0 (ZT0) was designated as the time when the lights were turned on, and ZT12 was designated as the time when the lights were turned off. All the mice were given access to food and tap water ad libitum, and nobiletin (10–100 mg/kg; purchased from FUJIFILM Wako Pure Chemical Corporation, Osaka, Japan) was administered by intraperitoneal (i.p.) injection in the vehicle (10 mL/kg body weight) containing 0.5% carboxymethyl cellulose (CMC). Rolipram (PDE4 inhibitor, FUJIFILM Wako Pure Chemical Corporation) and SR1078 (RORα/γ agonist, FUJIFILM Wako Pure Chemical Corporation) were also used for the experiment at 10 mg/kg in 0.5% CMC [12]. Mice were euthanized by rapid decapitation for whole blood samples.
(§2) Figure 3 Nobiletin stimulated adrenaline and corticosterone secretion, and induced acute clock gene expression changes. (A–C) Mice received intraperitoneal injections of control (0.5% CMC) or nobiletin (10 or 100 mg/kg) at ZT3. (A) Serum corticosterone at 1 h after treatment (n = 6 in each). $$$ p < 0.001 by Tukey’s multiple comparisons test. (B) Serum corticosterone and adrenaline at 1, 2, and 4 h after treatment (n = 4 in each). # p < 0.05 vs. control at each time point by Mann–Whitney test; ** p < 0.01 vs. control at each time point by Student’s t-test. (C) Blood glucose changes after treatment (n = 9 in each). Statistics of 2-way repeated ANOVA are indicated on the graph. […]

PDE4B = system: PDE4B; set-up: method as in PMID 22451408; conditions: cited from earlier work
PDE1C = system: PDE1C; set-up: method as in PMID 22451408; conditions: cited from earlier work
CRF [1] = system: CRF; set-up: method as in PMID 9179387; conditions: intraperitoneal injection to mice; cited from earlier work
CRF [2] = system: CRF; set-up: method as in PMID 9179387; conditions: isolated hypothalamic in vitro; cited from earlier work
corticosterone = conditions: cited from earlier work
serum adrenaline = experiment: Serum adrenaline ELISA after i.p. injection; assay type: in vivo, mice; conditions: 10 mg/kg i.p. at ZT3, 1 h after treatment
Protocol: (§3) Male C57BL/6J mice (7 weeks old) were purchased from Charles River Japan (Kanagawa, Japan) and used for the serum hormone assay and RT-PCR. Male ICR mice were purchased from Tokyo Laboratory Animals Science Co., Ltd. (Tokyo, Japan), and female PERIOD2::LUCIFERASE (PER2::LUC) knock-in mice (ICR background) bred at Waseda University were used for blood glucose measurements and in vivo imaging assays, respectively. The mice were all housed under conditions of controlled temperature (23 °C ± 3 °C), humidity (50% ± 20%), and lighting (lights on from 07:00 to 19:00 at Taisho Pharmaceutical Co., Ltd. or from 08:00 to 20:00 at Waseda University). In the 24 h cycle, Zeitgeber time 0 (ZT0) was designated as the time when the lights were turned on, and ZT12 was designated as the time when the lights were turned off. […]
(§4) Serum corticosterone, adrenaline, and adreno-corticotropic hormone (ACTH) levels, and corticotropin releasing factor (CRF) in the hypothalamus, were measured using enzyme-linked immunosorbent assay (ELISA). […] Blood glucose levels were measured using a Glucose PILOT kit (Aventir Biotech, LLC, Carlsbad, CA, USA). The range of blood glucose that could be precisely measured with the kit was 20–600 mg/dL. […]

serum corticosterone = experiment: Serum corticosterone ELISA after i.p. injection; assay type: in vivo, mice; conditions: 10 mg/kg i.p. at ZT3, 1 h after treatment
Protocol: as §3, §4

Per2 mRNA = experiment: Real-time RT-PCR of Per2 mRNA in peripheral tissues; assay type: in vivo, mice; conditions: stomach and lung, 2 h after 10 mg/kg i.p.
Protocol: as §1, with “samples. […]” for “samples.”

Per1 mRNA = experiment: Real-time RT-PCR of Per1 mRNA in peripheral tissues; assay type: in vivo, mice; conditions: stomach and lung, 2 h after 10 mg/kg i.p.
Protocol: as §1, §2

adrenaline = system: adrenaline; set-up: method as in PMID 9245486; conditions: intraperitoneal, 40–200 μg/kg; cited from earlier work

Structure (SMILES): O=C(Nc1ccc(C(O)(C(F)(F)F)C(F)(F)F)cc1)c1ccc(C(F)(F)F)cc1 [SR1078]
- Bmal1 expression (Bmal1 mRNA): did not change significantly

Structure (SMILES): COc1cc(-c2cc(=O)c3c(O)c(OC)c(O)c(OC)c3o2)ccc1O [Sudachitin]
- inhibition of PDE4B (PDE4B): inhibit
- inhibition of PDE1C (PDE1C): inhibit

Structure (SMILES): CCCCn1c(=O)c2c(ncn2CC(C)=O)n(CCCC)c1=O [denbufylline]
- CRF induction in vivo (CRF [1]): produced CRF induction
- CRF production (CRF [2]): significant production of CRF
- corticosterone secretion (corticosterone; via the HPA system): promotes corticosterone secretion

Structure (SMILES): COc1ccc(C2CNC(=O)C2)cc1OC1CCCC1 (stereo not drawn) [rolipram]
- Bmal1 expression (Bmal1 mRNA): did not change
- adrenaline secretion (serum adrenaline): detected
- corticosterone secretion (serum corticosterone): detected
- CRF production (CRF [2]): significant production of CRF
- corticosterone secretion (corticosterone; intraperitoneal, 40–200 μg/kg): increases
- serum corticosterone (corticosterone; low dose, 1.6 and 8 μg/kg): did not produce serum corticosterone increase
- Per2 mRNA changes (Per2 mRNA): detected
- Per1 mRNA changes (Per1 mRNA): detected
- adrenaline secretion (adrenaline): increases
